From US20260216189A1, “TOPICAL COMPOSITIONS CONTAINING A JANUS KINASE INHIBITOR” (Zoetis Services LLC, priority 2023, published 2026)

What was measured:
[1] = PK studies of topical compositions: systemic plasma and skin concentrations, single and repeat dose; assay type: in vivo
Protocol: Systemic plasma concentrations and skin concentrations 24 hours post dose were assessed for multiple compositions of the invention in a number of PK studies; including compositions with oclacitinib or oclacitinib maleate with API concentrations ranging from 1-10 mg/mL oclacitinib. The compositions tested to date have shown prolonged absorption that lasts at least 72 hours following a single dose and low topical bioavailability of less than 10% with single dose skin concentrations at least 20-80 times that observed in the oral single dose ^14C study. The oral 14C-oclacitinib study determined that a 0.4 mg/kg oral dose of oclacitinib achieved a mean skin concentration of 212 ng equivalents/gram. Permeation and penetration studies with compositions comprising a glycol, glycol ether and DMSO achieved single dose skin concentrations greater (28.4-54.5 μg/g) than that concentration achieved following oral administration, as mentioned above, and well above the reported oclacitinib IC50's for pro-inflammatory and pruritogenic cytokines.
The rate and amount of topical absorption can be a non-linear function of the API concentration of the composition. The topical compositions of the invention minimized systemic plasma oclacitinib concentrations while maintaining high skin concentrations. […] The studies to date and formulations described herein have shown that the compositions deliver skin concentrations greater than those observed with oral dosing. […] The topical single dose bioavailability is low, less than 5% when administered to an area that limits oral exposure from licking. […] Formulations with a lower oclacitinib concentration had lower systemic exposures.

[2] = system: HDM challenge site (excoriation lesions and erythema); test: house dust model (HDM) challenge, topical treatment of beagle dogs; colorimeter erythema and lesion scores; assay type: in vivo; conditions: for Post challenge total lesion scores compared to the saline group: treatment groups vs saline group
Protocol: (§1) The pharmacokinetics and pharmacodynamics (PK/PD) of orally dosed oclacitinib (0.4-0.6 mg/kg) is well understood. […] An oral 14C-oclacitinib study determined that a single 0.4 mg/kg dose achieved a mean skin concentration of 212 ng equivalents/gram of tissue. A house dust model (HDM) was used to assess the efficacy of the compositions described herein. The topical HDM challenge results in excoriation lesions and erythema at the challenge site. In one study, placebo (saline, TO1), triamcinolone acetonide 0.15 mg/mL (T02), oclacitinib maleate 7.5 mg/mL (T03) and oclacitinib maleate 10 mg/mL (T04) were topically administered to beagle dogs (8/group). The weights of drug in T02-T04 were freebase amounts.
Daily assessments were observed through Day 41. Colorimeter measurements provided quantified erythema scores. […] Lesions were observed and scored based on severity of erythema, papules and excoriations at the challenge site.

[3] = in vivo, po, 0.4 mg/kg
Protocol: as §1
Systemic plasma concentrations and skin concentrations 24 hours post dose were assessed for multiple compositions of the invention in a number of PK studies; including compositions with oclacitinib or oclacitinib maleate with API concentrations ranging from 1-10 mg/mL oclacitinib. […] The oral 14C-oclacitinib study determined that a 0.4 mg/kg oral dose of oclacitinib achieved a mean skin concentration of 212 ng equivalents/gram. […]

[4] = subsequent study, 2-3 sprays of topical solution, skin concentrations; assay type: in vivo; conditions: 2.5-10 mg/mL, about 0.25 to 0.5 mL topical
Protocol: In a subsequent study, animals received 2.5-10 mg/mL oclacitinib by applying 2-3 sprays for a total of about 0.25 to 0.5 mL of the topical solution to an area of skin.

IL-31 induced itch = conditions: orally dosed oclacitinib (0.4-0.6 mg/kg); cited from earlier work

24-hour post dose skin concentrations following repeat dosing, fold higher ([1]; across study comparisons, repeat vs single dosing)	bioavailability ([1]; plasma, topical, administered to an area that limits oral exposure from licking)	PK following topical administration, maleate vs freebase formulations ([1]; topical)	mean skin concentration [3]	skin concentrations of oclacitinib [4]	Molecule	accumulation in skin and plasma ([1]; following multiple daily administrations)	systemic levels ([1]; following multiple daily doses)	systemic plasma concentrations: absorption and terminal phase ([1]; single and repeat dose studies)	erythema reduction compared to saline (colorimeter) ([2]; 7.5 mg/mL topical, Day 36 (P=0.0993))	area under the curve (AUC) of total lesion scores compared to saline ([2]; 10 mg/mL (p<0.08))	erythema reduction compared to saline (colorimeter) ([2]; 10 mg/mL topical, Days 27, 28, and 36 (p≤0.0948))	lesion score reduction after the dosing period ended, versus other treatment groups ([2]; after the 28 day dosing period, observation through Day 41)	erythema reduction compared to saline (colorimeter) ([2]; both concentrations (7.5 and 10 mg/mL), topical once daily, after approximately 1 month of dosing)	Post challenge total lesion scores compared to the saline group [2]	lesion score reduction compared to saline ([2]; spray 7.5 mg/mL, Days 4, 7, 11, 26, 27, 30, and 39)	lesion score reduction compared to saline ([2]; spray 10 mg/mL, Days 7-11, 26, 30, and 32-34)	Plasma concentrations effective in reducing IL-31 induced itch (IL-31 induced itch)	lesion score reduction compared to saline ([2]; triamcinolone 0.15 mg/mL, Day 35)	lesion score reduction compared to saline ([2]; triamcinolone 0.15 mg/mL, Days 4, 8, 10, 11)	erythema reduction compared to saline (colorimeter) ([2]; triamcinolone spray 0.15 mg/mL, Days 12, 14, 19, 24-26, 28-33, and 35-41 (P≤0.0912))
at least 5 times	< 5%	comparable	212 ng equivalents/gram	acceptable skin concentrations	CNS(=O)(=O)C[C@H]1CC[C@H](N(C)c2ncnc3[nH]ccc23)CC1 [oclacitinib, N-methyl-1-{trans-4-[methyl (7H-pyrrolo[2,3-d]pyrimidin-4-yl)amino]cyclohexyl}-methanesulfonamide]	Accumulation in skin and plasma was observed	at a concentration that has shown efficacy in reducing IL-31 induced itch	prolonged absorption with the terminal phase not evident 10 days post dose	significantly greater reduction in erythema	significantly lower	significantly greater reduction	continued to demonstrate significant reduction in lesion scores	significant erythema reductions	significantly higher	significantly greater lesion score reductions	significantly greater lesion score reductions	greater than 12 ng/ml			
					CC1(C)O[C@@H]2C[C@H]3[C@@H]4CCC5=CC(=O)C=C[C@]5(C)[C@@]4(F)[C@@H](O)C[C@]3(C)[C@]2(C(=O)CO)O1 [triamcinolone, triamcinolone acetonide]									significantly higher				significantly lesser reduction	significantly greater reductions in lesion scores	significantly less reduction in erythema
		comparable			oclacitinib maleate															
